Experimental data from ChEMBL document CHEMBL1201862, “PubChem BioAssay data set” (2004).
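Cultured in 96-well plates, cells were exposed to test compound for 48 hours across five concentrations. GI50 is the concentration that inhibits growth by half.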 Activity calls are given as the source filed them. No stated cut-off is given here; in the data, active = GI50 up to about 1.1 µM and inactive = higher.

Assays:
Assay in all cases: NCI-60 cell line screen, 48 h
NCI-H226 = tested on: NCI-H226
MOLT-4 = tested on: MOLT-4
HOP-62 = tested on: HOP-62
TK-10 = tested on: TK-10
SK-OV-3 = tested on: SK-OV-3
SW-620 = tested on: SW-620
SR = tested on: SR
SNB-75 = tested on: SNB-75
HCC 2998 = tested on: HCC 2998
SN12C = tested on: SN12C
RXF 393 = tested on: RXF 393
HL-60 = tested on: HL-60
HOP-92 = tested on: HOP-92
SF-268 = tested on: SF-268
OVCAR-4 = tested on: OVCAR-4
SF-295 = tested on: SF-295
ACHN = tested on: ACHN
OVCAR-3 = tested on: OVCAR-3
CAKI-1 = tested on: CAKI-1

c1ccc(CN2CCC(Nc3ccccc3)(c3nnnn3Cc3ccccc3)CC2)cc1
GI50 (NCI-H226): 42.7 µM (inactive)
GI50 (MOLT-4): 10.1 µM (inactive)
GI50 (HOP-62): 45.7 µM (inactive)
GI50 (TK-10): 29.2 µM (inactive)
GI50 (SK-OV-3): 70.1 µM (inactive)
GI50 (SW-620): 22.2 µM (inactive)
GI50 (SR): 8.77 µM (inactive)
GI50 (SNB-75): 22.7 µM (inactive)
GI50 (HCC 2998): 3.01 µM (inactive)
GI50 (SN12C): 39.7 µM (inactive)
GI50 (RXF 393): 27.4 µM (inactive)
GI50 (HL-60): 11.5 µM (inactive)
GI50 (HOP-92): 5.37 µM (inactive)
GI50 (SF-268): > 100 µM (inactive)
GI50 (OVCAR-4): 29.6 µM (inactive)
GI50 (SF-295): 20.5 µM (inactive)
GI50 (ACHN): 35 µM (inactive)

C[N+](C)(C)CC(=O)N/N=C(/Cc1nc2ccc([N+](=O)[O-])cc2nc1O)C(=O)Nc1cc(C(F)(F)F)ccc1Cl
GI50 (MOLT-4): > 100 µM (inactive)
GI50 (OVCAR-3): > 100 µM (inactive)
GI50 (HOP-62): > 100 µM (inactive)
GI50 (TK-10): > 100 µM (inactive)
GI50 (SK-OV-3): > 100 µM (inactive)
GI50 (SW-620): > 100 µM (inactive)
GI50 (SR): > 100 µM (inactive)
GI50 (HCC 2998): > 100 µM (inactive)
GI50 (SN12C): > 100 µM (inactive)
GI50 (RXF 393): > 100 µM (inactive)
GI50 (HL-60): > 100 µM (inactive)
GI50 (HOP-92): 62.1 µM (inactive)
GI50 (SF-268): > 100 µM (inactive)
GI50 (OVCAR-4): > 100 µM (inactive)
GI50 (SF-295): > 100 µM (inactive)
GI50 (CAKI-1): > 100 µM (inactive)
GI50 (ACHN): > 100 µM (inactive)

O=c1c(-c2cccc3ccccc23)c(-c2cccc3ccccc23)c1=O
GI50 (NCI-H226): 2.32 µM (inactive)
GI50 (MOLT-4): 1.59 µM (inactive)
GI50 (OVCAR-3): 0.577 µM (active)
GI50 (HOP-62): 3.57 µM (inactive)
GI50 (TK-10): 15.1 µM (inactive)
GI50 (SK-OV-3): 10.8 µM (inactive)
GI50 (SW-620): 0.33 µM (active)
GI50 (SR): 1.43 µM (inactive)
GI50 (SNB-75): 0.2 µM (active)
GI50 (HCC 2998): 0.979 µM (active)
GI50 (SN12C): 5.06 µM (inactive)
GI50 (RXF 393): 4.69 µM (inactive)
GI50 (HL-60): 0.721 µM (active)
GI50 (HOP-92): 0.948 µM (active)
GI50 (SF-268): 5.47 µM (inactive)
GI50 (SF-295): 0.446 µM (active)
GI50 (CAKI-1): 2.91 µM (inactive)
GI50 (ACHN): 0.716 µM (active)

COC(=O)CC(NC(=O)OCc1ccccc1)C(C(=O)OCc1ccccc1)C1(C)OCCO1 (centres undefined)
GI50 (NCI-H226): 22.5 µM (inactive)
GI50 (MOLT-4): 20.5 µM (inactive)
GI50 (OVCAR-3): 53.8 µM (inactive)
GI50 (HOP-62): 47.5 µM (inactive)
GI50 (TK-10): 57.1 µM (inactive)
GI50 (SW-620): 47.6 µM (inactive)
GI50 (SR): 19.1 µM (inactive)
GI50 (SNB-75): 23.6 µM (inactive)
GI50 (HCC 2998): 61.9 µM (inactive)
GI50 (SN12C): 47.4 µM (inactive)
GI50 (RXF 393): 21.4 µM (inactive)
GI50 (HL-60): 21.1 µM (inactive)
GI50 (SF-268): 50.1 µM (inactive)
GI50 (OVCAR-4): 67.6 µM (inactive)
GI50 (SF-295): 32.4 µM (inactive)
GI50 (ACHN): 34.9 µM (inactive)

CCOC(=O)c1c(N)n(-c2ccccc2)c(=O)n(-c2ccccc2)c1=O
GI50 (NCI-H226): > 100 µM (inactive)
GI50 (MOLT-4): > 100 µM (inactive)
GI50 (OVCAR-3): > 100 µM (inactive)
GI50 (TK-10): > 100 µM (inactive)
GI50 (SW-620): > 100 µM (inactive)
GI50 (SR): > 100 µM (inactive)
GI50 (SNB-75): > 100 µM (inactive)
GI50 (HCC 2998): > 100 µM (inactive)
GI50 (SN12C): > 100 µM (inactive)
GI50 (RXF 393): > 100 µM (inactive)
GI50 (HL-60): > 100 µM (inactive)
GI50 (HOP-92): > 100 µM (inactive)
GI50 (SF-268): > 100 µM (inactive)
GI50 (OVCAR-4): > 100 µM (inactive)
GI50 (SF-295): > 100 µM (inactive)
GI50 (ACHN): > 100 µM (inactive)

O=C1OC(=O)C([Se]c2ccccc2)=C1[Se]c1ccccc1
GI50 (NCI-H226): > 100 µM (inactive)
GI50 (MOLT-4): > 100 µM (inactive)
GI50 (OVCAR-3): > 100 µM (inactive)
GI50 (HOP-62): > 100 µM (inactive)
GI50 (TK-10): > 100 µM (inactive)
GI50 (SK-OV-3): > 100 µM (inactive)
GI50 (SW-620): > 100 µM (inactive)
GI50 (SR): > 100 µM (inactive)
GI50 (SNB-75): > 100 µM (inactive)
GI50 (SN12C): > 100 µM (inactive)
GI50 (RXF 393): > 100 µM (inactive)
GI50 (HL-60): > 100 µM (inactive)
GI50 (HOP-92): 70.1 µM (inactive)
GI50 (SF-268): > 100 µM (inactive)
GI50 (OVCAR-4): > 100 µM (inactive)
GI50 (SF-295): > 100 µM (inactive)
GI50 (CAKI-1): > 100 µM (inactive)
GI50 (ACHN): > 100 µM (inactive)

CCOC(=O)c1cnc2cc3cccccc3n2c1=O
GI50 (NCI-H226): > 100 µM (inactive)
GI50 (MOLT-4): > 100 µM (inactive)
GI50 (OVCAR-3): > 100 µM (inactive)
GI50 (HOP-62): > 100 µM (inactive)
GI50 (TK-10): > 100 µM (inactive)
GI50 (SW-620): > 100 µM (inactive)
GI50 (SR): 45 µM (inactive)
GI50 (SNB-75): 97.5 µM (inactive)
GI50 (HCC 2998): > 100 µM (inactive)
GI50 (SN12C): > 100 µM (inactive)
GI50 (RXF 393): > 100 µM (inactive)
GI50 (HL-60): > 100 µM (inactive)
GI50 (SF-268): > 100 µM (inactive)
GI50 (OVCAR-4): > 100 µM (inactive)
GI50 (SF-295): > 100 µM (inactive)
GI50 (CAKI-1): > 100 µM (inactive)
GI50 (ACHN): > 100 µM (inactive)

Cc1no[n+]([O-])c1/C=N/NS(=O)(=O)c1ccccc1
GI50 (MOLT-4): > 100 µM (inactive)
GI50 (OVCAR-3): > 100 µM (inactive)
GI50 (HOP-62): > 100 µM (inactive)
GI50 (TK-10): > 100 µM (inactive)
GI50 (SK-OV-3): > 100 µM (inactive)
GI50 (SW-620): > 100 µM (inactive)
GI50 (SR): > 100 µM (inactive)
GI50 (HCC 2998): > 100 µM (inactive)
GI50 (SN12C): > 100 µM (inactive)
GI50 (RXF 393): > 100 µM (inactive)
GI50 (HL-60): > 100 µM (inactive)
GI50 (HOP-92): > 100 µM (inactive)
GI50 (SF-268): > 100 µM (inactive)
GI50 (OVCAR-4): > 100 µM (inactive)
GI50 (CAKI-1): > 100 µM (inactive)
